Source: article PMC7998250, “Temperate Zone Plant Natural Products—A Novel Resource for Activity against Tropical Parasitic Diseases” (Pharmaceuticals, 2021)
Read-outs that look alike come from different tables or passages of the source.

How the values were obtained:
[1] = tested on: T. evansi bloodstream form; experiment: Initial screen, T. evansi bloodstream form, Alamar Blue; assay type: cell-based, Trypanosoma evansi; settings: Trypanosoma evansi; for activity at 1 µM: initial screen; for inhibition of growth at 1 µM: read-out: initial hit T.e
Method: (§1) 634 compounds from the PhytoQuest Phytopure temperate plant natural product library were screened for growth inhibitory activity against L. mexicana axenic amastigotes, T. brucei bloodstream form, intraerythrocytic asexual P. falciparum (at 2 μM) and T. evansi bloodstream form parasites (at 1 μM). […] Our initial hits were defined as reducing growth of the parasite by ≥50%.
(§2) L. mexicana strain MNYC/BZ/62/M379 and L. donovani strain LdBOB (a clonal line from strain MHOM/SD/62/1S-CL2) were maintained in vitro in the procyclic promastigote stage. Parasites were cultivated at 26 °C in Schneider’s medium (Gibco) pH 7.0 containing 10% FBS, 100 U/mL penicillin (Lonza) and 100 μg/mL streptomycin (Lonza) as previously described. Differentiation into axenic amastigotes was performed as described previously. Briefly, axenic amastigotes were cultivated at 32 °C in Schneider’s medium pH 5.5 containing 10% FBS, 100 U/mL penicillin (Lonza) and 100 μg/mL streptomycin (Lonza). Bloodstream form T. brucei brucei strain Lister 427 and T. evansi strain Antat 3/3 [59] were maintained in vitro at 37 °C with 5% (v/v) CO2 in HMI-11 medium supplemented with 10% FBS, as described elsewhere. Intraerythrocytic cultures of P. falciparum Dd2^Luc strain [62] were maintained at 37 °C in a 1% O2:3% CO2:96% N2 atmosphere in RPMI-1640 containing 37.5 mM HEPES, 5 mM NaOH, 10 mM D-glucose, 2 mM L-glutamine, 100 μM hypoxanthine, […] gentamicin sulfate, 5% human serum and 5% albumax-II and 2% haematocrit erythrocytes. When required, cultures were synchronised to ring stages using the sorbitol lysis method. Preliminary cytotoxicity screening was assessed using HepG2 cells. These cells were maintained in vitro at 37 °C with 5% (v/v) CO2 in DMEM (Sigma) pH 7 supplemented with 10% FBS, 100 U/mL penicillin (Lonza) and 100 μg/mL streptomycin (Lonza), as previously described. The human monocyte cell line THP-1 [68] was maintained in vitro by culturing at 37 °C with 5% (v/v) CO2 in complete RPMI medium (Dutch modified RPMI-1640 (Gibco) containing 10% FBS and 2 mM L-glutamine (Gibco)). Differentiation of THP-1 cells into macrophages was performed by seeding 2.5 × 10^5 cells/mL in complete RPMI media, supplemented with 20 ng/mL phorbol 12-myristate 13-acetate (PMA), followed by incubation at 37 °C with 5% (v/v) CO2 for 24 h.
(§3) The library was provided as 634 non-polar compounds (1 mg/mL in DMSO). Initial screening was performed in a 96-well plate with 200 μL of parasite culture. The initial screen used each compound at a final concentration of 2 μM for L. mexicana axenic amastigotes, T. brucei and P. falciparum, and at 1 μM for T. evansi. L. mexicana axenic amastigotes were plated at 1 × 10^6 cells/mL, incubated for 72 h, and the Alamar Blue assay was used to assess parasite growth. Each compound was tested in triplicate, with two biological replicates (n = 6). T. brucei and T. evansi were plated at 1×10^5 cells/mL for 48 h, and the Alamar Blue assay was used to assess parasite growth. Each compound was tested in triplicate with two biological replicates (n = 6). Intraerythrocytic P. falciparum in the trophozoite stage were seeded at 0.5% parasitaemia and 2% haematocrit for 48 h, and the Malaria SYBR-Green I fluorescence assay was used to assess parasite growth. Each compound was tested in duplicate with two biological replicates (n = 4). Negative controls comprised an equivalent volume of DMSO (equivalent of 1% v/v) to normalise the growth data. Data points >100% growth and <0% growth were tabulated as 100% and 0%, respectively. Some compounds were not tested in all parasite lines as there was insufficient material remaining.

[2] = tested on: L. mexicana axenic amastigotes; experiment: Initial screen, L. mexicana axenic amastigotes, Alamar Blue; assay type: cell-based, Leishmania mexicana; settings: for decrease of L. mexicana survival: 72 h
Method: as §1, with “≥50%. […]” for “≥50%.”
as §3, with “The PhytoQuest Phytopure library is a commercially available collection of purified compounds isolated predominantly from temperate zone plants, with structures confirmed by NMR and mass spectrometry. The library” for “The library”

[3] = tested on: P. falciparum Dd2Luc intraerythrocytic trophozoites; experiment: Initial screen, intraerythrocytic P. falciparum, Malaria SYBR-Green I fluorescence assay; assay type: cell-based, Plasmodium falciparum
Method: as §1, with “≥50%. […]” for “≥50%.”
as §3, with “The PhytoQuest Phytopure library is a commercially available collection of purified compounds isolated predominantly from temperate zone plants, with structures confirmed by NMR and mass spectrometry. The library” for “The library”

[4] = tested on: T. evansi; experiment: Concentration-response EC50, T. evansi; assay type: cell-based; settings: Trypanosoma evansi, 48 h, read-out: T. evansi EC50
Method: EC50 values were determined by serial two-fold dilution of each compound in 96 well plates. Culture conditions and viability assays were as stated for the initial screen, with some exceptions. L. mexicana and L. donovani axenic amastigotes were seeded at 2 × 10^6 cell/s mL, T. brucei and T. evansi were seeded at 2 × 10^5 cells/mL. For cytotoxicity studies, HepG2 cells were seeded at 1 × 10^5 cells/mL, incubated for 48 h and viability was assessed using the Alamar Blue assay [66, 67]. […] Normalised growth and viability data (compared to untreated controls) were plotted against Log10 concentration to estimate EC50 in GraphPad (Prism v6).

[5] = tested on: T. brucei bloodstream form; experiment: Initial screen, T. brucei bloodstream form, Alamar Blue; assay type: cell-based, Trypanosoma brucei brucei
Method: as §1, §2, §3

[6] = in vitro; settings: human, pH 7, HepG2 CC50
Description: Initial hits from the parasite panel screen were taken forward in log concentration versus normalised response assays to estimate the half maximal effective concentration (EC50) in hit species as well as the half maximal cytotoxic concentrations (CC50) in the human hepatoma cell line HepG2 as a preliminary test for selectivity. Using CC50/EC50 to define the selectivity index (SI), the selectivity for each compound in a defined species compared to a human cell line was estimated and compared to the EC50 (Figure 3).
as §2
EC50 values were determined by serial two-fold dilution of each compound in 96 well plates. Culture conditions and viability assays were as stated for the initial screen, with some exceptions. L. mexicana and L. donovani axenic amastigotes were seeded at 2 × 10^6 cell/s mL, T. brucei and T. evansi were seeded at 2 × 10^5 cells/mL. For cytotoxicity studies, HepG2 cells were seeded at 1 × 10^5 cells/mL, incubated for 48 h and viability was assessed using the Alamar Blue assay. Differentiated THP-1 cells were seeded at 5 × 10^4 cells/mL, incubated for 48 h, and viability was assessed by the Alamar Blue assay. Normalised growth and viability data (compared to untreated controls) were plotted against Log10 concentration to estimate EC50 in GraphPad (Prism v6). Bioluminescence relative rate of kill assays in asexual intraerythrocytic P. falciparum Dd2^Luc were carried out as described.

[7] = tested on: L. mexicana axenic amastigotes; experiment: Concentration-response EC50, L. mexicana axenic amastigotes (WT); assay type: cell-based, Leishmania mexicana; settings: Leishmania mexicana, 72 h, read-out: L. mexicana EC50, axenic amastigotes, 72 h
[8] = Cytotoxicity CC50, differentiated THP-1, Alamar Blue; assay type: cell-based, human; settings: human, THP-1 cells differentiated into macrophages with PMA, differentiated THP-1, 48 h; read-out: THP1 CC50
Description: The four lanosterone-like sterols derived from the Noble Fir Abies procera (700022, 700107, 700136) and the Grand Fir Abies grandis (700240) were the only initial compounds taken forward for L. mexicana due to their nanomolar activity and apparent low cytotoxicity (Figure 3a). […] Understanding the impact of the ring-opened lactone head group in this compound compared to the other three warrants further analysis in exploring their structure-activity relationships. These four sterols were also tested for growth inhibitory activity against L. donovani axenic amastigotes. […] As Leishmania spp. amastigotes typically reside with macrophages, further cytotoxicity assays with these sterols were performed against an activated monocyte cell line (THP-1) (Figure 4b). […]

[9] = mean % growth compared to a normalised control with same concentration of DMSO solvent, read-out: % growth T. evansi
[10] = Leishmania mexicana, read-out: % growth L. mexicana, mean % growth compared to a normalised control with same concentration of DMSO solvent, initial screen
[11] = Plasmodium falciparum, 48 h, read-out: %growth P. falciparum, mean % growth compared to a normalised control with same concentration of DMSO solvent, initial screen
[12] = Trypanosoma brucei, mean % growth compared to a normalised control with same concentration of DMSO solvent, initial screen, read-out: % growth T. b. brucei
[13] = mean % growth compared to a normalised control with same concentration of DMSO solvent, initial screen
[14] = compared to a normalised control with same concentration of DMSO solvent, read-out: mean % growth, T. evansi
[15] = Leishmania mexicana, read-out: mean % growth, L. mexicana, initial screen, compared to a normalised control with same concentration of DMSO solvent
[16] = Plasmodium falciparum, 48 h, read-out: mean % growth, P. falciparum, initial screen, compared to a normalised control with same concentration of DMSO solvent
[17] = Trypanosoma brucei, initial screen, compared to a normalised control with same concentration of DMSO solvent, read-out: mean % growth, T. b. brucei

Row | Compound | activity at 1 µM [1, 9] [%] | inhibition of growth at 1 µM ([1]; 1 μM, x = initial hit) [%] | activity at 2 µM [2, 10] [%] | activity at 2 µM [3, 11] [%] | EC50 ([4]; bloodstream form) [µM] | activity at 2 µM [5, 12] [%] | CC50 at 48 h [6] [µM] | activity at 1 µM [1, 14] [%] | activity at 2 µM [2, 15] [%] | activity at 2 µM [3, 16] [%] | activity at 2 µM [5, 17] [%] | further results
1 | C/C=C(\C)C(=O)OC1C(C)OC(Oc2c(C(C)C)ccc(C)c2O)C(O)C1OC1OC(C)C(OC(=O)C(C)CC)C(O)C1O (stereo not drawn) [Compound 700004] | 0.7 | > 50 | 48.1 | 101 | 0.357 | 14 | 16 |  |  |  |  | initial hit against T. brucei ([5]; 2 μM, growth reduced by ≥50%): initial hits; inhibition of growth at 2 µM ([5]; Trypanosoma brucei, 2 μM, x = initial hit, read-out: initial hit T.b): > 50%
2 | CC1=CC(CC(C)C2CCC3(C)C4=CCC5C(C)(C)C(=O)CCC5(C)C4CCC23C)OC1=O (stereo not drawn) [Compound 700016] | 40.5 | > 50 | 47.1 | 104 | > 3 | 75.7 |  |  |  |  |  | decrease of L. mexicana survival ([2]; 2 μM): more than 50%
3 | CC(=O)OC1C(O)C(C)OC(OC2C(OC(=O)C3CC[C@@H]4[C@H](C3)OC3(CC(OC(=O)/C=C/c5ccccc5)[C@@H](C)CO3)C43CO3)OC(CO)C(O)C2OC(C)=O)C1O (stereo partly drawn) [Compound 700063] |  |  |  |  |  |  |  |  |  |  |  | activity at 1 µM ([1]; read-out: % growth T. evansi, mean % growth compared to a normalised control with same concentration of DMSO solvent): 44.5%; inhibition of growth at 1 µM [1]: > 50%; decrease of L. mexicana survival ([2]; 2 μM): ~70%; % growth L. mexicana [2, 13]: 70.5%; activity against P. falciparum in screen ([3]; 2 μM): neither 700014 or 700063 showed activity against P. falciparum; %growth P. falciparum [3, 13]: 104.8%; EC50 [4]: > 10 µM; % growth T. b. brucei [5, 13]: 95.6%
4 | COc1ccc(CC2COC(=O)C2Cc2ccc(OC)c(O)c2O)cc1OC (stereo not drawn) [Compound 700144] | 35.8 | > 50 | 83.6 | 82.6 | 0.451 | 69.4 | > 100 |  |  |  |  | 
5 | CC(C)=CCc1c(O)cc2oc(-c3ccc(O)c(O)c3)c(O)c(=O)c2c1O [Compound 700326] | 34.7 | > 50 | 27 | 63.1 | 1.8 |  |  |  |  |  |  | 
6 | CC(C)c1cc(CCC2C(=O)CCCC2(C)C)c(O)cc1O (stereo not drawn) [Compound 700454] |  | > 50 |  |  | 3.3 |  |  | 43.7 | 47.9 | 95.4 | 77.3 | reduction of P. falciparum growth ([3]; 2 μM, 48 h, Dd2Luc): 5%
7 | C/C(=C\C(=O)O)C(O)CC12CCCCC1C(C)(C(=O)OC(O)O)CCC2 (stereo not drawn) [Compound 700513] |  | > 50 |  |  | 0.756 |  | > 100 | 50 | 56.5 | 97 | 104 | 
8 | C=C1C(=O)OC2/C=C(/C)CC/C=C(/C)CC(OC(=O)/C(C)=C\CO)C12 (stereo not drawn) [Compound 700756] |  |  |  |  |  |  |  | 98.4 | 2.9 | 44 | 53.7 | initial hit against L. mexicana ([2]; 2 μM, growth inhibited by ≥80%): initial hits; inhibition of growth at 2 µM ([2]; Leishmania mexicana, 2 μM, x = initial hit, read-out: initial hit L.m): > 80%; inhibition of growth at 2 µM ([3]; Plasmodium falciparum, 48 h, read-out: initial hit P.f): > 50%; EC50 [7]: 1 µM; CC50 at 48 h [8]: 2.8 µM
9 | CC(=O)OC1C(COC(=O)/C=C/c2ccc(O)cc2)OC(Oc2c(-c3ccc(O)cc3)oc3cc(O)cc(O)c3c2=O)C(OC(=O)/C=C/c2ccc(O)cc2)C1O (stereo not drawn) [Compound 701088] |  | > 50 |  |  | 0.816 |  | 54 | 42.7 | 81.1 | 99.9 | 63 | 
